Data from patent publication US8450308B2 (Vitae Pharmaceuticals, Inc., priority 2008, dated 2013).

The molecules below were run against T1, truncated human beta-secretase (residues 1-458, His6-tagged at the C-terminus) (Homo sapiens, UniProt P56817) (assay: BACE fluorescence quench assay). Settings: not given.
T1 construct: truncated human beta-secretase (residues 1-458, His6-tagged at the C-terminus); His6 (C); made in house; host or cells: insect cells D. melanogaster S2 (baculovirus expression system (so in the source))
T1 sequence (P56817 22-458): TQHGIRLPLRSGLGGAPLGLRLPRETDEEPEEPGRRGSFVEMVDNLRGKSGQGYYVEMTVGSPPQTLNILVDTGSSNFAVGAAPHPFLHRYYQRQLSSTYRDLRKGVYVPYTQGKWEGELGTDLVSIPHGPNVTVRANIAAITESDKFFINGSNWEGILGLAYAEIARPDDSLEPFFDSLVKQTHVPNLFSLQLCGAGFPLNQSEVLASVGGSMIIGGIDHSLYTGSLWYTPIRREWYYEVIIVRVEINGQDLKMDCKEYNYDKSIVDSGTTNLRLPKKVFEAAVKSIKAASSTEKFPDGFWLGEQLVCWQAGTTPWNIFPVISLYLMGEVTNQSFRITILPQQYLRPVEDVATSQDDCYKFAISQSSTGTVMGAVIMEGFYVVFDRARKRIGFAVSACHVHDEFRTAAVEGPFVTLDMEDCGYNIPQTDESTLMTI
Type: biochemical
Method: The assay was performed at room temperature in 96-well white opaque Optiplates aque Optiplates (PerkinElmer, Waltham, Mass.) in a total volume of 200 μl of the incubation mixture containing 50 mM sodium acetate buffer, pH 4.5, 0.4 μM FRET substrate, 2.4 nM enzyme, 5% DMSO, and 0.05% Brij-35. The tested compounds were serially diluted in DMSO and pre-incubated with the substrate. The reaction was started by addition of enzyme, and the progress of the reaction was followed by measuring fluorescence with an excitation wavelength of 480 nm and an emission wavelength of 520 nm. Ten measurements were taken every 5-10 min, and the intensity of fluorescence was regressed against time in order to derive velocities of reaction in all 96 wells. […] IC50 values were calculated by fitting percent inhibition vs. inhibitor concentration into a four-parametric logistic model using XLFit software (IDBS, Guildford, UK).

`CN1C(=O)C2(CC(c3ccccc3)Oc3ccc(-c4cccc(C(=O)N5CCCC5)c4)cc32)N=C1N` (stereo not shown) [Compound 61, 2′-amino-1′-methyl-2-phenyl-6-(3-(pyrrolidine-1-carbonyl)phenyl)spiro[chroman-4,4′-imidazol]-5′(1′H)-one] and `CN(C)C(=O)c1ccc(-c2ccc3c(c2)C2(CC(c4ccccc4)O3)N=C(N)N(C)C2=O)cc1` (stereo not shown) [Compound 68, 4-(2′-amino-1′-methyl-5′-oxo-2-phenyl-1′,5′-dihydrospiro[chroman-4,4′-imidazole]-6-yl)-N,N-dimethylbenzamide] fall in the same range of IC50: 10000 to 50000 nM for the first, 10000 to 50000 nM for the second.

`CN1C(=O)C2(CC(c3ccccc3)Oc3ccc(-c4ccc(CNS(C)(=O)=O)cc4)cc32)N=C1N` (stereo not shown) [Compound 62, N-(4-(2′-amino-1′-methyl-5′-oxo-2-phenyl-1′,5′-dihydrospiro[chroman-4,4′-imidazole]-6-yl)benzyl)methanesulfonamide] and `CN1C(=O)C2(CC(c3ccccc3)Oc3ccc(-c4ccc(S(=O)(=O)N(C)C)cc4)cc32)N=C1N` (stereo not shown) [Compound 65, 4-(2′-amino-1′-methyl-5′-oxo-2-phenyl-1′,5′-dihydrospiro[chroman-4,4′-imidazole]-6-yl)-N,N-dimethylbenzenesulfonamide] fall in the same range of IC50: 10000 to 50000 nM for the first, 10000 to 50000 nM for the second.

`CN(C)C(=O)c1ccccc1-c1ccc2c(c1)C1(CC(c3ccccc3)O2)N=C(N)N(C)C1=O` (stereo not shown) [Compound 66, 2-(2′-amino-1′-methyl-5′-oxo-2-phenyl-1′,5′-dihydrospiro[chroman-4,4′-imidazole]-6-yl)-N,N-dimethylbenzamide] and `CCN(CC)C(=O)c1ccc(-c2ccc3c(c2)C2(CC(c4ccccc4)O3)N=C(N)N(C)C2=O)cc1` (stereo not shown) [Compound 71, 4-(2′-amino-1′-methyl-5′-oxo-2-phenyl-1′,5′-dihydro-spiro[chroman-4,4′-imidazole]-6-yl)-N,N-diethylbenzamide] fall in the same range of IC50: 10000 to 50000 nM for the first, 10000 to 50000 nM for the second.

Work on `CN1C(=O)C2(CC(c3ccccc3)Oc3ccc(-c4cccn4C(=O)OC(C)(C)C)cc32)N=C1N` (stereo not shown) [Compound 70, tert-butyl 2-(2′-amino-1′-methyl-5′-oxo-2-phenyl-1′,5′-dihydrospiro[chroman-4,4′-imidazole]-6-yl)-1H-pyrrole-1-carboxylate] yielded an IC50 of 10000 to 50000 nM.

Same assay, conditions: in vitro enzyme activity, BACE fluorescence assay, pH 4.5; read-out: IC50

`NC1=NC2(CC(c3ccccc3)Oc3ccc(Br)cc32)C(=O)N1CCC1CC1` (stereo not shown) [Compound 59, 2′-amino-6-bromo-1′-(2-cyclopropylethyl)-2-phenylspiro[chroman-4,4′-imidazol]-5′(1′H)-one] and `CCN1C(=O)C2(CC(c3ccccc3)Oc3ccc(Br)cc32)N=C1N` (stereo not shown) [Compound 69, 2′-amino-6-bromo-1′-ethyl-2-phenylspiro[chroman-4,4′-imidazol]-5′(1′H)-one] fall in the same range of IC50: 10000 to 50000 nM for the first, 10000 to 50000 nM for the second.

`CN1C(=O)C2(CC(c3ccccc3F)Oc3ccc(Br)cc32)N=C1N` (stereo not shown) [Compound 63, 2′-amino-6-bromo-2-(2-fluorophenyl)-1′-methylspiro-[chroman-4,4′-imidazol]-5′(1′H)-one] and `Cc1ccc2c(c1)C1(CC(c3ccccc3)O2)N=C(N)N(C)C1=O` (stereo not shown) [Compound 64, 2′-amino-1′,6-dimethyl-2-phenylspiro[chroman-4,4′-imidizol]-5′(1′H)-one] fall in the same range of IC50: 10000 to 50000 nM for the first, 10000 to 50000 nM for the second.

`CN1C(=O)C2(CC3(CCCOC3)Oc3ccc(-c4cccc(C#N)c4)cc32)N=C1N` (stereo not shown) [Compound 72] and `CN1C(=O)[C@@]2(C[C@]3(CCCOC3)Oc3ccc(-c4cccc(C#N)c4)cc32)N=C1N` [Compound 72a] fall in the same range of IC50: 1 to 100 nM for the first, 1 to 100 nM for the second.

First: CN1C(=O)[C@@]2(C[C@@]3(CCCOC3)Oc3ccc(-c4cccc(C#N)c4)cc32)N=C1N [Compound 72b]
Second: CN1C(=O)C2(CC3(CCCC3)Oc3ccc(-c4cccc(C#N)c4)cc32)N=C1N (stereo not shown) [Compound 79]
The IC50 of the first is lower: 100 to 500 nM for the first, 500 to 1000 nM for the second.

`CCC1CCC2(C1)CC1(N=C(N)N(C)C1=O)c1cc(-c3cccc(C#N)c3)ccc1O2` (stereo not shown) [Compound 73] and `CC1CCC2(C1)CC1(N=C(N)N(C)C1=O)c1cc(-c3cccc(C#N)c3)ccc1O2` (stereo not shown) [Compound 74] fall in the same range of IC50: 100 to 500 nM for the first, 100 to 500 nM for the second.

First: CC1CCC2(CC1)CC1(N=C(N)N(C)C1=O)c1cc(-c3cccc(C#N)c3)ccc1O2 (stereo not shown) [Compound 75]
Second: CC1CCCC2(C1)CC1(N=C(N)N(C)C1=O)c1cc(-c3cccc(C#N)c3)ccc1O2 (stereo not shown) [Compound 82]
The IC50 of the first is lower: 100 to 500 nM for the first, 1000 to 5000 nM for the second. The first is the more potent here.

Compared with `CN1C(=O)C2(CC3(CCCCC3)Oc3ccc(-c4cccc(C#N)c4)cc32)N=C1N` (stereo not shown) [Compound 76], `CN1C(=O)C2(CC3(CCCCCC3)Oc3ccc(-c4cccc(C#N)c4)cc32)N=C1N` (stereo not shown) [Compound 78] is higher in IC50: 100 to 500 nM for the first, 500 to 1000 nM for the second. The first is the more potent here.

Compared with `CN1C(=O)C2(CC3(CCOCC3)Oc3ccc(-c4cccc(C#N)c4)cc32)N=C1N` (stereo not shown) [Compound 77], `CC1CC(C)CC2(C1)CC1(N=C(N)N(C)C1=O)c1cc(-c3cccc(C#N)c3)ccc1O2` (stereo not shown) [Compound 83] is higher in IC50: 100 to 500 nM for the first, 1000 to 5000 nM for the second.

First: CN1C(=O)C2(CC3(CCCCC3)Oc3ccc(-c4cccnc4)cc32)N=C1N (stereo not shown) [Compound 80]
Second: CN1C(=O)C2(CC3(CCCCC3)Oc3ccc(-c4ccncc4)cc32)N=C1N (stereo not shown) [Compound 84]
The IC50 of the first is lower: 1000 to 5000 nM for the first, 10000 to 50000 nM for the second.

`CN1C(=O)C2(CC3(CCCC(C(F)(F)F)C3)Oc3ccc(-c4cccc(C#N)c4)cc32)N=C1N` (stereo not shown) [Compound 81] and `CN1OC2(CC(C3CCCC3)Oc3ccc(-c4cccc(C#N)c4)cc32)N=C1N` (stereo not shown) [Compound 99] fall in the same range of IC50: 1000 to 5000 nM for the first, 1000 to 5000 nM for the second.

First: CN1OC2(CC(C3CCCOC3)Oc3ccc(-c4cccc(C#N)c4)cc32)N=C1N (stereo not shown) [Compound 85, 3-(3′-amino-2′-methyl-2-(tetrahydro-2H-pyran-3-yl)-2′H-spiro[chroman-4,5′-[1,2,4]oxadiazole]-6-yl)benzonitrile]
Second: CN1OC2(CC(C3CCOC3)Oc3ccc(-c4cccc(C#N)c4)cc32)N=C1N (stereo not shown) [Compound 94]
The IC50 of the first is lower: 1 to 100 nM for the first, 500 to 1000 nM for the second.

First: CN1OC2(CC(C3CCCOC3)Oc3ccc(-c4cc(F)cc(C#N)c4)cc32)N=C1N (stereo not shown) [Compound 86]
Second: CN1OC2(CC(C3CCCOC3)Oc3ccc(-c4cc(F)cc(F)c4)cc32)N=C1N (stereo not shown) [Compound 90, 6-(3,5-difluorophenyl)-2′-methyl-2-(tetrahydro-2H-pyran-3-yl)-2′H-spiro[chroman-4,5′-[1,2,4]oxadiazol]-3′-amine]
The IC50 of the first is lower: 1 to 100 nM for the first, 100 to 500 nM for the second.

First: CN1OC2(CC(C3CCCOC3)Oc3ccc(-c4cccc(Cl)c4)cc32)N=C1N (stereo not shown) [Compound 87]
Second: CN1OC2(CC(C3CCCOC3)Oc3ccc(-c4cccc(F)c4)cc32)N=C1N (stereo not shown) [Compound 93, 6-(3-fluorophenyl)-2′-methyl-2-(tetrahydro-2H-pyran-3-yl)-2′H-spiro[chroman-4,5′-[1,2,4]oxadiazol]-3′-amine]
The IC50 of the first is lower: 100 to 500 nM for the first, 500 to 1000 nM for the second.

First: CN1OC2(CC(C3CCOCC3)Oc3ccc(-c4cccc(C#N)c4)cc32)N=C1N (stereo not shown) [Compound 88, 3-(3′-amino-2′-methyl-2-(tetrahydro-2H-pyran-4-yl)-2′H-spiro[chroman-4,5′-[1,2,4]-oxadiazole]-6-yl)benzonitrile]
Second: CN1OC2(CCOc3ccc(-c4cccc(C#N)c4)cc32)N=C1N (stereo not shown) [Compound 97, 3-(3′-Amino-2′-methyl-2′H-spiro[chroman-4,5′-[1,2,4]oxadiazole]-6-yl)benzonitrile]
The IC50 of the first is lower: 100 to 500 nM for the first, 1000 to 5000 nM for the second. The first is the more potent here.

Compared with `CN1OC2(C[C@@H](C3CCCOC3)Oc3ccc(-c4cccnc4F)cc32)N=C1N` (stereo partly shown) [Compound 89a], `CN1OC2(C[C@H](C3CCCOC3)Oc3ccc(-c4cccnc4F)cc32)N=C1N` (stereo partly shown) [Compound 89b] is higher in IC50: 100 to 500 nM for the first, 1000 to 5000 nM for the second.

`COc1ccc(F)c(-c2ccc3c(c2)C2(CC(C4CCCOC4)O3)N=C(N)N(C)O2)c1` (stereo not shown) [Compound 91] and `COc1cccc(-c2ccc3c(c2)C2(CC(C4CCCOC4)O3)N=C(N)N(C)O2)c1F` (stereo not shown) [Compound 92] fall in the same range of IC50: 100 to 500 nM for the first, 100 to 500 nM for the second.

`CN1OC2(CC(c3cccnc3)Oc3ccc(-c4cccc(C#N)c4)cc32)N=C1N` (stereo not shown) [Compound 95, 3-(3′-amino-2′-methyl-2-(pyridine-3-yl)-2′H-spiro[chroman-4,5′-[1,2,4]-oxadiazole]-6-yl)benzonitrile] and `CN1OC2(CC(c3ccccc3)Oc3ccc(-c4cccc(C#N)c4)cc32)N=C1N` (stereo not shown) [Compound 96, 3-(3′-amino-2′-methyl-2-phenyl-2′H-spiro[chroman-4,5′-[1,2,4]oxadiazole]-6-yl)benzonitrile] fall in the same range of IC50: 1000 to 5000 nM for the first, 1000 to 5000 nM for the second.

`CN1OC2(CC(C3CCCOC3)Oc3ccc(-c4cncnc4)cc32)N=C1N` (stereo not shown) [Compound 98] and `CC(C)c1cccc(-c2ccc3c(c2)C2(CC(C4CCCOC4)O3)N=C(N)N(C)O2)c1` (stereo not shown) [Compound 101, 6-(3-isopropylphenyl)-2′-methyl-2-(tetrahydro-2H-pyran-3-yl)-2′H-spiro[chroman-4,5′-[1,2,4]oxadiazol]-3′-amine] fall in the same range of IC50: 1000 to 5000 nM for the first, 1000 to 5000 nM for the second.

First: CN1OC2(CC(CO)(CO)Oc3ccc(-c4cccc(C#N)c4)cc32)N=C1N (stereo not shown) [Compound 100, 3-(2,2-bis(hydroxymethyl)-3′-imino-2′-methylspiro[chroman-4,5′-[1,2,4]oxadiazolidine]-6-yl)benzonitrile]
Second: CN1OC2(CC(c3ccccc3)Oc3ccc(-c4ccc(F)c(C#N)c4)cc32)N=C1N (stereo not shown) [Compound 103, 5-(3′-amino-2′-methyl-2-phenyl-2′H-spiro(chroman-4,5′-(1,2,4)oxadiazole)-6-yl)-2-fluorobenzonitrile]
The IC50 of the first is lower: 1000 to 5000 nM for the first, 5000 to 10000 nM for the second.

`CN1OC2(CC(c3ccccc3)Oc3ccc(-c4cccnc4)cc32)N=C1N` (stereo not shown) [Compound 102, 2′-methyl-2-phenyl-6-(pyridin-3-yl)-2′H-spiro[chroman-4,5′-[1,2,4]oxadiazol]-3′-amine] showed an IC50 of 1000 to 5000 nM.
